Reference: ChEMBL document CHEMBL1821724, “Synthesis and in vitro evaluation of derivatives of the β₁-adrenergic receptor antagonist HX-CH 44” (Bioorg Med Chem Lett, 2011)

What was measured:
[1] = molecular target: Beta-2 adrenergic receptor (Homo sapiens, UniProt P07550); assay: Displacement of [125I]-Iodopindolol from beta2-adrenergic receptor after 1.5 hrs by liquid scintillation counting
[2] = molecular target: T1, 5-hydroxytryptamine receptor 1A (Homo sapiens, UniProt P08908); assay: Displacement of [3H]-8-OH-DPAT from 5HT1A receptor after 1.5 hrs by liquid scintillation counting
T1 sequence (P08908 whole entry): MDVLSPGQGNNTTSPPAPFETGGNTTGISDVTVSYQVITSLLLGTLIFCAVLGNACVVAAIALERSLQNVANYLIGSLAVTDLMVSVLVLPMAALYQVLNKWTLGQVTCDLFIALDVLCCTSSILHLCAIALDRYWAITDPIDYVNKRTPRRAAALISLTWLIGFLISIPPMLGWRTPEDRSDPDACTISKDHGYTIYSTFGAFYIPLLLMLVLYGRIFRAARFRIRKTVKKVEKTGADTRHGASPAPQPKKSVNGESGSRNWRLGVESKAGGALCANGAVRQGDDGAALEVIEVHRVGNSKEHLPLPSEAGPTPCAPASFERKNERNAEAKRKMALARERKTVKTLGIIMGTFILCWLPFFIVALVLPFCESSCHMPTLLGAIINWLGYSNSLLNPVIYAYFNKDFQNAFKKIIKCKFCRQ

[3] = molecular target: Beta-1 adrenergic receptor (Homo sapiens, UniProt P08588); assay: Displacement of [125I]-Iodopindolol from beta1-adrenergic receptor after 1.5 hrs by liquid scintillation counting
[4] = molecular target: Beta-1 adrenergic receptor (Rattus norvegicus, UniProt P18090); assay: Displacement of [3H]-CGP12177 from beta1-adrenergic receptor in rat heart membranes; assay type: cell membranes, Membrane
Chain of Beta-1 adrenergic receptor (Rattus norvegicus, UniProt P18090) (P18090 whole entry): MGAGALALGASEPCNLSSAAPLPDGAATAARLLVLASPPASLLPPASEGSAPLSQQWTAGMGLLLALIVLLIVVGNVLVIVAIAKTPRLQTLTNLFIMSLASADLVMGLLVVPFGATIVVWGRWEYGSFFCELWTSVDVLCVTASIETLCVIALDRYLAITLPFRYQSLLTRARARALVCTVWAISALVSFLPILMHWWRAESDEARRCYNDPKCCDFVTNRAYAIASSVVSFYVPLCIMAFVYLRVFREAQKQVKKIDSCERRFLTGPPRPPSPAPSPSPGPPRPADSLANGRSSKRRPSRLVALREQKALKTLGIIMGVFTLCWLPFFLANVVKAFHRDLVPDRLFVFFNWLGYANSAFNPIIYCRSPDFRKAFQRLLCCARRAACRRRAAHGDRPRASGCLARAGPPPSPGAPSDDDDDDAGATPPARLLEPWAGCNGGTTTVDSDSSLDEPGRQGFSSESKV

Chain of Beta-1 adrenergic receptor (Homo sapiens, UniProt P08588) (P08588 whole entry): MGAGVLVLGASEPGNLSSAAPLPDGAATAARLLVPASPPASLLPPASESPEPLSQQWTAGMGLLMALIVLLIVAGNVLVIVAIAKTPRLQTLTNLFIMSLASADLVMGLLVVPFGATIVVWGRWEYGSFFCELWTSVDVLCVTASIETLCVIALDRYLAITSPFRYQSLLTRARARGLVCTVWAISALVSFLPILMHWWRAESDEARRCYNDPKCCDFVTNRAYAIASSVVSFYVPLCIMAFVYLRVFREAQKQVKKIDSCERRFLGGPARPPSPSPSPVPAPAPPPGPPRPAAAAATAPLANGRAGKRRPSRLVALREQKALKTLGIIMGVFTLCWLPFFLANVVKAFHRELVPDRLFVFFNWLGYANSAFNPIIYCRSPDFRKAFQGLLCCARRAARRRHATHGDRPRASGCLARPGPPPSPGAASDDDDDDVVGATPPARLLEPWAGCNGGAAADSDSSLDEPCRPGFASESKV
Chain of Beta-2 adrenergic receptor (P07550 whole entry): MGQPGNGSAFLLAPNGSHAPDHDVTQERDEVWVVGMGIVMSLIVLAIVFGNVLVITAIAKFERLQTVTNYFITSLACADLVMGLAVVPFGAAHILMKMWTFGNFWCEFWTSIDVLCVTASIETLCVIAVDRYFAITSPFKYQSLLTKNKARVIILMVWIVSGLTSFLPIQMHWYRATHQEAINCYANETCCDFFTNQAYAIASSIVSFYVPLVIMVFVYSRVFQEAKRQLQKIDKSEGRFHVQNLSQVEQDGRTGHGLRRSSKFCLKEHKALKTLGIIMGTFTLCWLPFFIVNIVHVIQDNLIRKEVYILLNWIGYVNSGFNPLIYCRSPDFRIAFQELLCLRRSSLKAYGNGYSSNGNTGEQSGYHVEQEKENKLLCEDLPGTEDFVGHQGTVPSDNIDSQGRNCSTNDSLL

COc1ccc2nc(-c3ccc(OC[C@@H](O)CNC(C)CF)cc3)n(C)c(=O)c2c1 (stereo not given in full) gave a Ki [1] of over 10 µM, a Ki [2] of over 10 µM and a Ki [3] of 3 µM.

COc1ccc2nc(-c3ccc(OCC(O)CNC(C)CF)cc3)n(C)c(=O)c2c1 (mixture of isomers) was tested, and the Ki [1] was over 10 µM, the Ki [2] was over 10 µM and the Ki [3] was 2.3 µM.

With COc1ccc2nc(-c3ccc(OCC(O)CNC(C)(C)C)cc3)n([11CH3])c(=O)c2c1 (racemic) the Ki [4] was 0.077 µM.

Work on COc1ccc2nc(-c3ccc(OCC(O)CNC(C)C)cc3)n(C)c(=O)c2c1 (racemic) yielded a Ki [1] of 7.7 µM, a Ki [2] of 5.5 µM and a Ki [3] of 2.4 µM.
